Assay results reported in patent US12528816B2, “Substituted imidazo [1,2-b] pyridazines and [1, 2, 4] triazolo [ 4,3-b] pyridazines as camkii inhibitors” (Cardurion Pharmaceuticals, INC., priority 2020, dated 2026).

What follows are compounds tested against T1, human CaMKIIδ (Homo sapiens, UniProt Q13557) (assay: Evaluation of in vitro CaMKII inhibitory activity (binding assay, TR-FRET)). Details: human CaMKIIδ, TR-FRET binding assay; class symbols A/B/C; read-out: Act (CaMKII inhibitory activity, binding assay).
T1 construct: Full-length, glutathione-S-transferase(GST)-tagged, human CaMKIIδ was purchased from Carna Biosciences; purchased Carna Biosciences (CaMKIIδ); Wako Pure Chemical Industries (calmodulin) 02-111
Outline: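 Inhibitors, in eight concentrations of 4-fold dilution, were incubated 1 h at room temperature with a protein–fluorescent probe premix preformed 30 min on ice, containing calmodulin and terbium anti-GST antibody. Displacement read by TR-FRET in duplicate; IC50 by logistic fitting.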
For COc1ccccc1-c1cnn2ccc(-c3ccc(F)c(O[C@@H](C)Cn4cnnn4)c3)nc12 [compound 31], the IC50 was under 10 nM.
Work on C[C@@H](Cn1cnnn1)Oc1cc(-c2ccn3ncc(-c4ccccc4C(F)F)c3n2)ccc1F [compound 149] yielded an IC50 of 10 to 100 nM.
Compound C[C@@H](Cn1cnnn1)Oc1cc(-c2ccc3ncc(-c4cccc(OCC#N)c4C#N)n3n2)ccc1F [compound 177] has an IC50 of under 10 nM.
Compound COCCC(=O)Nc1cccc(-c2cnc3ccc(-c4ccc(F)c(O[C@@H](C)Cn5cnnn5)c4)nn23)c1C#N [compound 182] has an IC50 of under 10 nM.
C[C@@H](Cn1cnnn1)Oc1cc(-c2ccc3ncn(-c4ccn(C)n4)c3n2)ccc1F [compound 122] gave an IC50 of under 10 nM.
For C[C@@H](Cn1cnnn1)Oc1cc(-c2ccn3ncc(-c4cccc(Cl)c4)c3n2)ccc1F [compound 134], the IC50 was under 10 nM.
Compound C[C@@H](Cn1cnnn1)Oc1cccc(-c2ccn3ncc(-c4cccc(C(=O)NCCn5ccnc5)c4)c3n2)c1 [compound 95] has an IC50 of under 10 nM.
C[C@@H](Cn1cnnn1)Oc1cc(-c2ccn3ncc(-c4ccccc4C=O)c3n2)ccc1F [compound 123] was tested, and the IC50 was under 10 nM.
For COCCCn1ncc(-c2cnc3ccc(-c4ccc(F)c(O[C@@H](C)Cn5cnnn5)c4)nn23)c1C(=O)O [compound 230], the IC50 was over 100 nM.
Work on COc1ccnc(-c2cnc3ccc(-c4ccc(F)c(N[C@@H](C)Cn5cnnn5)c4)nn23)c1C#N [Example 478, 2-[6-(4-fluoro-3-{[(2S)-1-(1H-tetrazol-1-yl)propan-2-yl]amino}phenyl)imidazo[1,2-b]pyridazin-3-yl]-4-methoxypyridine-3-carbonitrile] yielded an IC50 of under 10 nM.
C[C@@H](Cn1cnnn1)Oc1cc(-c2ccn3ncc(-c4cccnc4C#N)c3n2)ccc1F [compound 137] was tested, and the IC50 was under 10 nM.
In the case of CCOC(=O)c1ccc(C#N)c(-c2cnc3ccc(-c4ccc(F)c(O[C@@H](C)Cn5cnnn5)c4)nn23)c1 [compound 146], the IC50 is reported as under 10 nM.
CCN(CC)CCNC(=O)c1cccc(-n2cnc3ccc(-c4ccc(F)c(O[C@@H](C)Cn5cnnn5)c4)nc32)c1 [compound 12] showed an IC50 of under 10 nM.
For COc1ncc(C#N)cc1-c1cnc2ccc(-c3ccc(F)c(O[C@@H](C)Cn4cnnn4)c3)nn12 [compound 219], the IC50 was under 10 nM.
CNC(=O)c1ccnc(-n2cnc3ccc(-c4ccc(F)c(O[C@@H](C)Cn5cnnn5)c4)nc32)c1 [compound 116] showed an IC50 of under 10 nM.
In the case of Cc1nn2ccc(-c3ccc(F)c(O[C@@H](C)Cn4cnnn4)c3)nc2c1-c1cccs1 [Example 57, 1-[(2S)-2-{2-fluoro-5-[2-methyl-3-(thiophen-2-yl)pyrazolo[1,5-a]pyrimidin-5-yl]phenoxy}propyl]-1H-tetrazole], the IC50 is reported as 10 to 100 nM.
CC(Cn1cnnn1)Oc1cc(-c2ccc3ncc(-c4cccc(OC5CCC(N6CC(C)OC(C)C6)CC5)c4C#N)n3n2)ccc1F [compound 195, 2-[6-(4-fluoro-3-{[(2S)-1-(1H-tetrazol-1-yl)propan-2-yl]oxy}phenyl)imidazo[1,2-b]pyridazin-3-yl]-6-{[(1r,4r)-4-[(2R,6S)-2,6-dimethylmorpholin-4-yl]cyclohexyl]oxy}benzonitrile] showed an IC50 of under 10 nM.
Compound CNC(=O)c1ccccc1-c1cnn2ccc(-c3ccc(F)c(O[C@@H](C)Cn4cnnn4)c3)nc12 [compound 34] has an IC50 of over 100 nM.
With CNC(=O)CNC(=O)c1cccc(-c2cnn3ccc(-c4cccc(O[C@@H](C)Cn5cnnn5)c4)nc23)c1 [compound 77] the IC50 was under 10 nM.
Work on CC(=O)Nc1ccccc1-c1cnn2ccc(-c3ccc(F)c(O[C@@H](C)Cn4cnnn4)c3)nc12 [compound 39] yielded an IC50 of over 100 nM.
COCCNc1cccc(-c2cnn3ccc(-c4ccc(F)c(O[C@@H](C)Cn5cnnn5)c4)nc23)c1C#N [compound 180] gave an IC50 of under 10 nM.
In the case of C[C@@H](Cc1nnn[nH]1)Oc1cccc(-c2ccn3ncc(-c4cccs4)c3n2)c1 [compound 114], the IC50 is reported as 10 to 100 nM.

Same assay, conditions: in vitro CaMKII inhibitory activity (binding assay), human CaMKIIδ; read-out: Act
For COc1nc(-c2cnc3ccc(-c4cccc(O[C@@H](C)Cn5cnnn5)c4)nn23)ccc1C#N [compound 312], the IC50 was under 10 nM.
COc1ncnc(-c2cnc3ccc(-c4cccc(O[C@@H](C)Cn5cnnn5)n4)nn23)c1C#N [compound 459] was tested, and the IC50 was over 100 nM.
C[C@@H](Cn1cnnn1)Oc1cccc(-c2ccc3ncc(-c4ccccc4CO)n3n2)c1 [compound 308] gave an IC50 of under 10 nM.
COc1ccc(C#N)c(-c2cnc3ccc(-c4cccc(O[C@@H](C)Cn5cnnn5)n4)nn23)c1 [compound 420] was tested, and the IC50 was under 10 nM.
COc1cc(Cl)cc(-c2cnc3ccc(-c4cncc(O[C@@H](C)Cn5cnnn5)n4)nn23)c1C#N [compound 455] showed an IC50 of under 10 nM.
COc1cc(-c2cnc3ccc(-c4cccc(O[C@@H](C)Cn5cnnn5)c4)nn23)c(F)cn1 [compound 351] was tested, and the IC50 was under 10 nM.
C[C@@H](Cn1cnnn1)Oc1ccnc(-c2ccc3ncc(-c4cc(F)ccc4C#N)n3n2)c1 [Example 311, 4-fluoro-2-[6-(4-{[(2S)-1-(1H-tetrazol-1-yl)propan-2-yl]oxy}pyridin-2-yl)imidazo[1,2-b]pyridazin-3-yl]benzonitrile] was tested, and the IC50 was under 10 nM.
With C[C@@H](Cn1cnnn1)Oc1cc(-c2ccc3ncc(-c4cc(N=S5(=O)CCCC5)ccc4C#N)n3n2)ccc1F [compound 264] the IC50 was over 100 nM.
With C[C@@H](Cn1cnnn1)Oc1cccc(-c2ccc3ncc(-c4ccccc4CN=S(C)(C)=O)n3n2)c1 [compound 306] the IC50 was 10 to 100 nM.
In the case of COc1ncnc(-c2cnc3ccc(-c4cccc(O[C@@H](C)Cn5cnnn5)c4)nn23)c1C#N [Example 320, 4-methoxy-6-[6-(3-{[(2S)-1-(1H-tetrazol-1-yl)propan-2-yl]oxy}phenyl)imidazo[1,2-b]pyridazin-3-yl]pyrimidine-5-carbonitrile], the IC50 is reported as under 10 nM.
C[C@@H](Cn1cnnn1)Oc1cccc(-c2ccc3ncn(-c4ncccc4C#N)c3n2)c1 [Example 284, 2-[5-(3-{[(2S)-1-(1H-tetrazol-1-yl)propan-2-yl]oxy}phenyl)-3H-imidazo[4,5-b]pyridin-3-yl]pyridine-3-carbonitrile] showed an IC50 of under 10 nM.
Compound C[C@@H](Cn1cnnn1)Oc1cccc(-c2ccc3ncc(-c4cc[n+]([O-])cc4C#N)n3n2)c1 [compound 282] has an IC50 of 10 to 100 nM.
C[C@@H](Cn1cnnn1)Oc1cccc(-c2ccc3ncc(-c4nc[nH]c(=O)c4C#N)n3n2)c1 [compound 381] gave an IC50 of under 10 nM.
C[C@@H](Cn1cnnn1)Oc1cccc(-c2ccc3ncc(-c4cc(F)cn(CC#N)c4=O)n3n2)c1 [compound 360] gave an IC50 of under 10 nM.
Compound COc1nccc(-c2cnc3ccc(-c4cccc(O[C@@H](C)Cn5cnnn5)c4)nn23)c1C#N [compound 400] has an IC50 of under 10 nM.
With COc1cc(Cl)cc(-n2cnc3ccc(-c4cccc(O[C@@H](C)Cn5cnnn5)n4)nc32)c1C#N [compound 454] the IC50 was under 10 nM.
For CNc1ccc(C#N)c(-c2cnc3ccc(-c4cccc(O[C@@H](C)Cn5cnnn5)c4)nn23)n1 [compound 361], the IC50 was under 10 nM.
Compound C[C@@H](Cn1cnnn1)Oc1cccc(-c2ccc3ncc(-c4ncccc4C#N)n3n2)c1 [Example 271, 2-[6-(3-{[(2S)-1-(1H-tetrazol-1-yl)propan-2-yl]oxy}phenyl)imidazo[1,2-b]pyridazin-3-yl]pyridine-3-carbonitrile] has an IC50 of under 10 nM.
Work on CNC(=O)c1c(-c2cnc3ccc(-c4ccc(F)c(O[C@@H](C)Cn5cnnn5)c4)nn23)cnn1CCCOC [compound 235] yielded an IC50 of over 100 nM.
COc1cnc(C#N)c(-c2cnc3ccc(-c4cccc(O[C@@H](C)Cn5cnnn5)c4)nn23)n1 [compound 285] showed an IC50 of under 10 nM.
With COc1cccc(-c2cnc3ccc(-c4cccc(O[C@@H](C)Cn5cnnn5)c4)nn23)c1C#N [compound 322] the IC50 was under 10 nM.
Compound C[C@@H](Cn1cnnn1)Oc1cccc(-c2ccc3ncc(-c4cccc(F)c4C#N)n3n2)n1 [compound 419] has an IC50 of under 10 nM.
C[C@@H](Cn1cnnn1)Oc1cccc(-c2ccn3ncc(-c4cnccc4C#N)c3n2)c1 [compound 310] gave an IC50 of under 10 nM.
In the case of C[C@@H](Cn1cnnn1)Oc1cc(-c2ccc3ncc(-c4cc(F)ccc4C#N)n3n2)ccc1F [compound 246], the IC50 is reported as under 10 nM.
Work on C[C@@H](Cn1cnnn1)Oc1cccc(-c2ccc3nnc(-c4cc(F)ccc4C#N)n3n2)c1 [compound 387] yielded an IC50 of over 100 nM.
For C[C@@H](Cn1cnnn1)Oc1cccc(-c2ccc3ncc(-c4cc(=O)[nH]cc4C#N)n3n2)n1 [compound 464], the IC50 was under 10 nM.
C[C@@H](Cn1cnnn1)Oc1cc(-c2ccc3ncn(-c4ncccc4C#N)c3n2)ccc1Cl [compound 368] gave an IC50 of 10 to 100 nM.
For C[C@@H](Cn1cnnn1)Oc1cc(-c2ccc3ncc(-c4ncccc4C#N)n3n2)ccc1F [Example 247, 2-[6-(4-fluoro-3-{[(2S)-1-(1H-tetrazol-1-yl)propan-2-yl]oxy}phenyl)imidazo[1,2-b]pyridazin-3-yl]pyridine-3-carbonitrile], the IC50 was under 10 nM.
COc1ncc(F)cc1-c1cnc2ccc(-c3cccc(O[C@@H](C)Cn4cnnn4)c3)nn12 [compound 315] showed an IC50 of under 10 nM.
In the case of CNc1ccnc(-c2cnc3ccc(-c4cccc(O[C@@H](C)Cn5cnnn5)c4)nn23)c1C#N [Example 358, 4-(methylamino)-2-[6-(3-{[(2S)-1-(1H-tetrazol-1-yl)propan-2-yl]oxy}phenyl)imidazo[1,2-b]pyridazin-3-yl]pyridine-3-carbonitrile], the IC50 is reported as under 10 nM.
For COc1cc(F)cc(-c2cnc3ccc(-c4ccc(F)c(O[C@@H](C)Cn5cnnn5)n4)nn23)c1C#N [Example 447, 4-fluoro-2-[6-(5-fluoro-6-{[(2S)-1-(1H-tetrazol-1-yl)propan-2-yl]oxy}pyridin-2-yl)imidazo[1,2-b]pyridazin-3-yl]-6-methoxybenzonitrile], the IC50 was under 10 nM.
Cc1c[nH]c(=O)c(-c2cnc3ccc(-c4cccc(O[C@@H](C)Cn5cnnn5)c4)nn23)c1 [compound 329] gave an IC50 of under 10 nM.
Work on C[C@@H](Cn1cnnn1)Oc1cccc(-c2ccc3ncc(-c4ccccc4C#N)n3n2)c1 [Example 239, 2-[6-(3-{[(2S)-1-(1H-tetrazol-1-yl)propan-2-yl]oxy}phenyl)imidazo[1,2-b]pyridazin-3-yl]benzonitrile] yielded an IC50 of under 10 nM.
